The values that follow come from PubChem BioAssay AID1576 (EPA DSSTox, 2009).

Molecules are shown by their SMILES. The source made the active and inactive calls.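 Rule for the calls: active = chemicals shown by follow-up kinetic tests to compete for rat estrogen receptor sites, with a measured inhibition constant; inconclusive = some binding seen but constant unmeasurable owing to poor solubility; inactive = no binding up to top dose, or binding unconfirmed.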

Sequence of Estrogen receptor (Rattus norvegicus) (P06211 whole entry, looked up): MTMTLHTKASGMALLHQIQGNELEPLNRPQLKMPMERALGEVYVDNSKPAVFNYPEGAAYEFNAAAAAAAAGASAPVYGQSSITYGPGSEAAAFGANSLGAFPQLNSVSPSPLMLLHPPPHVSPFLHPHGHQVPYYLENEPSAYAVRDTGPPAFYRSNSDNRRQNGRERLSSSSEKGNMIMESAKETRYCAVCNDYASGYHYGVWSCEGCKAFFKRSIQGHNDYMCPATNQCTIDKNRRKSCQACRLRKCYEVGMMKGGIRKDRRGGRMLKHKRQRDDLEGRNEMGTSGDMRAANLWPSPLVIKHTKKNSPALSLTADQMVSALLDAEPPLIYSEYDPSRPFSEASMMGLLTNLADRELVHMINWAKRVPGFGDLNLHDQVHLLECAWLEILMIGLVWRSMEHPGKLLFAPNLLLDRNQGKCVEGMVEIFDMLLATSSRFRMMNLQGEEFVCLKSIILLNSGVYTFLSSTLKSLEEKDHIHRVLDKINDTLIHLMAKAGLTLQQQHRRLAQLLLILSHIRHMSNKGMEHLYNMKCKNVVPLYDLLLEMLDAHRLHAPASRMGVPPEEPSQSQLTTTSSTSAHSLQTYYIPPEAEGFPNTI

One data set concerns the target Estrogen receptor (Rattus norvegicus) (UniProt P06211). The experiment in a line: DSSTox (KIERBL) EPA Estrogen Receptor Ki Binding Study (Laws et al.) Database. As to conditions: Rat uterine cytosol ER, 3H-estradiol competitive binding. As to the method:
This study was conducted by EPA researchers to evaluate the validity of the rat uterine cytosolic (RUC) estrogen receptor (ER) competitive binding assay for use in the Endocrine Disruption Screening Program (EDSP). The assay measures the ability of radiolabeled 17-beta-estradiol (3H-E2) to bind with RUC ER in the presence of increasing concentrations of a test chemical. The goal is to employ this in vitro assay as a 1st tier screening tool for assessing the potential of structurally diverse environmental chemicals to bind to the ER, as well as to support research efforts to develop computational models to predict ER binding. A distinguishing feature of the present study was the use of secondary experimental analysis of binding curves and determination of Ki values to confirm that measured IC50 values corresponded to true positive results. The study concluded that a number of experimental conditions can confound interpretation of IC50 values obtained from the RUC ER-binding assay data and lead to false positive results. In particular, some chemical treatments likely alter the stability of the assay by changing the buffer pH, denaturing ER, or disrupting the ER binding kinetics. […] The chemicals used in this study were selected as part of a validation test for two Quantitative Structure-Activity Relationship (QSAR) models designed to predict ER binding [Fed. Reg. 67(250), 79618, Dec. 30, 2002]. Several hundred chemicals were initially screened, including approximately 100 chemicals selected from among the High Production Volume (HPV) chemicals included in EPA's Toxic Substances Control Act (TSCA) inventory that were predicted to be positive for ER binding, with the rest selected at random from the TSCA inventory. All chemicals were initially tested in ER competitive binding assays by Battelle Pacific Northwest Laboratories, Richland, Washington [EPA Contract Number 68-W-99-033, Task 6]. Approximately 50 chemicals produced binding curves that: (1) strongly implied competitive inhibition of ER binding, or (2) produced partial curves or irregular (non-sigmoid) binding curves. These chemicals were further evaluated in an ER competitive binding assay with secondary analysis to confirm true competitive inhibition and to determine an experimental Ki [U.S. EPA Contract 3D-5967-NTEX]. The results of RUC ER screening for these 50 structurally diverse chemicals, for which secondary confirmatory analyses were performed, were published in the Main Citation (Laws et al., 2006, Tox. Sci. 94:46-56). The remaining 228 chemicals were designated as non-binders based on initial screening studies.
The DSSTox KIERBL data files include all published IC50 and Ki experimental results for the 50 chemicals included in the Main Citation (Laws et al., 2006) (denoted Group 1), as well as previously unpublished results for an additional 228 structually diverse TSCA chemicals for which no ER binding was observed (denoted Group 2. IC50 values were determined for 32 compounds in Group 1 as the concentration of a test chemical that inhibits the maximal specific binding of 0.33 nM radiolabeled (3H) 17-beta-estradiol (E2) to rat uterine cytosolic (RUC) estrogen receptor (ER) by 50%. Confirmation of binding status was accomplished by secondary analysis using Lineweaver-Burk plots and slope replots to determine true competitive inhibition and an experimental Ki value. Ki is the inhibition constant for the test chemical, i.e., the concentration of the test chemical that will bind to half the binding sites at equilibrium (displacing half of the probe-bound receptors), in the absence of radioligand or other competitors. Ki reported as Mean +/- Standard Error from n=2 experiments (see StandardError_Ki_n2) and is determined from Lineweaver-Burk plots over the tested dose range (TestedRange_microM). For more information see BindingCurve_Group and BindingCurve_Details. […]
For `Cc1cccc(C(=O)O)c1O`, the outcome was “inactive; none”.
Same read-out and setting: then `NNC(=O)c1cccc(C(=O)NN)c1`, with “inactive; none”.
Still for that read-out and setting: then `Cc1cc(C)c(C)cc1C`, with “inactive; none”; and `CCCCCCCCCCCCOCCOCCO`, with “inactive; none”.
Still for that read-out and setting: the result for `CCN(CC)c1ccc(N)c(C)c1` reads “inactive; none”.
As for `C=CC(=O)OCCC(F)(F)C(F)(F)C(F)(F)C(F)(F)C(F)(F)C(F)(F)C(F)(F)C(F)(F)C(F)(F)C(F)(F)F`, the outcome was “inactive; incomplete”.
Take `C=CC(=O)OCCOCCOC(=O)C=C`: the outcome was “inactive; none”.
Consider `O=C(O)CCCCC(=O)O`, for which the outcome was “inactive; none”.
The same measure, in the same setting: the result for `NCCCCCCNCCCCCCN` reads “inactive; none”; that for `O=S(=O)(O)c1ccc(N=Nc2c(O)ccc3ccccc23)cc1`, “inactive; none”; that for `O=C(O)c1ccc2cc(O)ccc2c1`, “inactive; none”.
As for `N#CCC(=O)O`, the outcome was “inactive; none”.
The same measure, in the same setting: then `COCCO`, with “inactive; none”; and `O=C1OC2(c3ccc(O)cc3Oc3cc(O)ccc32)c2c(Cl)c(Cl)c(Cl)c(Cl)c21`, with “inactive; none”; and `O=C(n1ccnc1)n1ccnc1`, with “inactive; none”.
The same measure, in the same setting: the result for `CC(=O)c1ccc(O)cc1` reads “inactive; none”; that for `CCOC(=O)CCC(=O)OCC`, “inactive; none”.
Same read-out and setting: then `CCOc1ccc(NC(C)=O)cc1`, with “inactive; none”; and `CCOC(=O)c1ccccc1C(=O)OCC`, with “inactive; none”.
Turning to `CCN(CCO)c1ccc(N=Nc2ccc([N+](=O)[O-])cc2Cl)cc1`, the outcome was “inactive; none”.
Turning to `N#CCc1ccccc1`, the outcome was “inactive; none”.
Still for that read-out and setting: the result for `CC1(C)C(C=C(Cl)Cl)C1C(=O)OC(C#N)c1cccc(Oc2ccccc2)c1` (configuration not stated) reads “inactive; none”; that for `O=C(Cl)c1ccccc1C(=O)Cl`, “inactive; none”.
The same measure, in the same setting: the result for `CO[Si](CCCNCCC[Si](OC)(OC)OC)(OC)OC` reads “inactive; none”.
Still for that read-out and setting: then `COc1cc(S(=O)(=O)O)c(C)cc1N=Nc1c(O)ccc2cc(S(=O)(=O)O)ccc12`, with “inactive; none”; and `COc1ccc(C=O)cc1OC`, with “inactive; incomplete”; and `C=CS(=O)(=O)O`, with “inactive; none”.
Consider `CC(C)N`, for which the outcome was “inactive; none”.
Still for that read-out and setting: the result for `Cc1ccc2n[nH]nc2c1` reads “inactive; none”; that for `CC(C)(C)c1cc(-n2nc3ccc(Cl)cc3n2)c(O)c(C(C)(C)C)c1`, “inactive; none”.
Same read-out and setting: then `CC(C)(C)CC(C)(C)c1ccc(O)c(-n2nc3ccccc3n2)c1`, with “inactive; none”; and `CCCCCCCCCC#N`, with “inactive; none”; and `O=C(Nc1ccccc1)c1cc(Cl)ccc1O`, with “inactive; incomplete”.
Same read-out and setting: the result for `O=C1c2ccccc2C(=O)N1SC1CCCCC1` reads “inactive; none”; that for `CCCCCCCCCCCCCCCCCCN`, “inactive; none”; that for `Cc1c(C)c2c(c(C)c1O)CC[C@@](C)(CCC[C@H](C)CCC[C@H](C)CCCC(C)C)O2`, “inactive; none”.
`c1ccsc1`: the outcome is “inactive; none”.
On the same count and under the same terms, the result for `CC(C)c1ccc2cc(C(C)C)ccc2c1` reads “inactive; none”.
On the same count and under the same terms, the result for `CCN(CC)c1ccc(C(=C2C=CC(=[N+](CC)CC)C=C2)c2ccc(N(CC)CC)cc2)cc1` reads “inactive; none”; that for `CC(C)(c1cc(Br)c(OCCO)c(Br)c1)c1cc(Br)c(OCCO)c(Br)c1`, “inactive; none”.
In the case of `O=C(O)C1CCC(C(=O)O)CC1` (configuration not stated), the outcome is “inactive; none”.
On the same count and under the same terms, the result for `O=C(Oc1cccc(O)c1)c1ccccc1` reads “inactive; none”.
`CCCCCCOC(=O)c1ccccc1C(=O)OCCCCCC`: the outcome is “inactive; none”.
Same read-out and setting: then `O=C(Cl)c1ccccc1`, with “inactive; none”; and `CC(C)CCC(C)Nc1ccc(NC(C)CCC(C)C)cc1` (configuration not stated), with “inactive; none”; and `NNC(=O)NN`, with “inactive; none”.
The same measure, in the same setting: the result for `CC1CCCCN1CCCOC(=O)c1ccc(Cl)c(Cl)c1` (configuration not stated) reads “inactive; none”; that for `CCCCCCCC(=O)OCC(COC(=O)CCCCCCC)OC(=O)CCCCCCC`, “inactive; none”; that for `O=C(Oc1ccccc1)c1ccc2ccccc2c1O`, “inactive; none”.
In the case of `O=NN(c1ccccc1)c1ccccc1`, the outcome was “inactive; none”.
Take `CCOC(=O)C(CC)C(=O)OCC`: the outcome was “inactive; none”.
Same read-out and setting: the result for `C=C[Si](C)(C)O[Si](C)(C)C=C` reads “inactive; none”; that for `CN1CSC(=S)N(C)C1`, “inactive; none”.
On the same count and under the same terms, the result for `CN(C)c1ccc(C(=C2C=CC(=[N+](C)C)C=C2)c2ccc(N(C)C)cc2)cc1` reads “inactive; none”; that for `C=CC(=O)OCC(C)O` (configuration not stated), “inactive; none”.
Turning to `O=C(O)CC(O)(CC(=O)O)C(=O)O`, the outcome is “inactive; none”.
On to `CCCCCCCCCCCCCCBr`, for which the outcome was “inactive; none”.
Same read-out and setting: the result for `CC(Cl)Cl` reads “inactive; none”; that for `CC(C)(C)[Si](C)(C)Cl`, “inactive; none”; that for `O=C1OS(=O)(=O)c2ccccc21`, “inactive; none”.
Still for that read-out and setting: then `CCSC(=O)N(CC)C1CCCCC1`, with “inactive; none”; and `CN(C)c1ccc(C(=C2C=CC(=Nc3ccccc3)c3ccccc32)c2ccc(N(C)C)cc2)cc1`, with “inactive; none”; and `COCOC`, with “inactive; none”.
`CO[Si](CCCCl)(OC)OC`: the outcome was “inactive; none”.
Same read-out and setting: the result for `OC1CCCCC1` reads “inactive; none”; that for `COCCOC(=O)CC#N`, “inactive; none”.
As to `OCCOCCOCCO`, the outcome was “inactive; none”.
The same measure, in the same setting: the result for `C(CCOCC1CO1)COCC1CO1` (configuration not stated) reads “inactive; none”.
Same read-out and setting: then `Cc1cc(-n2nc3ccc(Cl)cc3n2)c(O)c(C(C)(C)C)c1`, with “inactive; none”; and `COC(=O)c1ccccc1S(=O)(=O)NC(=O)N(C)c1nc(C)nc(OC)n1`, with “inactive; none”; and `O=C(Nc1ccc(Cl)cc1)Nc1ccc(Cl)c(Cl)c1`, with “inactive; none”.
On the same count and under the same terms, then `CCCCCCOc1ccccc1C(=O)O`, with “inactive; none”.
On to `O=Cc1ccc(F)cc1`, for which the outcome is “inactive; none”.
On the same count and under the same terms, then `C=CC(=O)OCC(C)C`, with “inactive; none”.
On the same count and under the same terms, the result for `Cc1cc(C(C)(C)C)cc(C)c1C` reads “inactive; none”.
Consider `CC(C)COC(=O)C(C)C`, for which the outcome is “inactive; none”.
On the same count and under the same terms, the result for `C=CC(=O)OCCC(F)(F)C(F)(F)C(F)(F)C(F)(F)C(F)(F)C(F)(F)F` reads “inactive; none”.

The data set is the same for the next values; noted with them: Rat uterine cytosol ER, 3H-estradiol competitive binding; TestedRange_microM: 1-10.
On to `CCCCCCCCCCCCCCN(C)C`, for which the outcome is “inactive; complete”.

Still in this data set, the particulars now being: Rat uterine cytosol ER, 3H-estradiol competitive binding; TestedRange_microM: 2.5-7.5.
Regarding `Oc1ccc(C(c2ccc(O)cc2)(C(F)(F)F)C(F)(F)F)cc1`, the Potency was 1.9 µM.

The data set is the same for the next values; noted with them: Rat uterine cytosol ER, 3H-estradiol competitive binding; TestedRange_microM: 3-30.
In the case of `CC(C)(c1ccccc1)c1ccc(O)cc1`, the Potency was 16.5 µM.

The data set is the same for the next values; noted with them: Rat uterine cytosol ER, 3H-estradiol competitive binding; TestedRange_microM: 10-100.
With `O=S(=O)(c1ccc(O)cc1)c1ccc(O)cc1`, the Potency is 82.4 µM.

The same data set, now with this note: Rat uterine cytosol ER, 3H-estradiol competitive binding; TestedRange_microM: 44-178.
On to `CCCCCCCc1ccc(O)cc1`, for which the Potency was 177 µM.
